Data from publication PMC8161390, “Salinity Alters Toxicity of Commonly Used Pesticides in a Model Euryhaline Fish Species (Menidia beryllina)” (Toxics, 2021).
≈ marks a conversion by molar mass, not a printed value. Where two headings read alike, the source gives them in different places.

Key:
[1] = test system: Rainbow Trout (Oncorhynchus mykiss); conditions: freshwater; 96-h acute; range of minimum to maximum reported LC50 values; ref U.S. EPA ECOTOX database; cited from earlier work
[2] = set-up: method as in earlier work; conditions: cited from earlier work
[3] = cited from earlier work
[4] = Inland Silverside embryo-to-larva 12-day exposure bioassay (mortality, dose-response); conditions: Menidia beryllina (Inland Silverside), in vivo, <24 hpf embryos to 96 hph larvae, nominal concentrations
Protocol: (§1) Inland Silverside embryos were removed from the spawning substrate, assessed for fertilization with a VWR VistaVision Dissecting Scope (VWR International, Radnor, PA, USA), and randomly placed in exposure wells with 1 mL of clean artificial seawater (ASW) made from reverse osmosis water and Instant Ocean Sea Salt (Spectrum Brands, Blacksburg, VA, USA). Once all well plates (Supplemental Material and Video S1) were loaded, each test was initiated by pouring the appropriate exposure solution into the well plate until embryos were submerged in 8 mL of exposure solution. Organisms were exposed from <24 h post fertilization (hpf) as embryos to 96 h post hatch (hph) larvae for a total exposure period of 12 days. […] After hatching, fish larvae, which still had their yolk sacs, were fed Gemma Microdiet (Skretting, Westbrook, ME, USA) once per day and were allowed to feed for at least two hours prior to water changes. […] Temperature, pH, salinity, and dissolved oxygen were measured daily before and after water changes using a YSI Professional Plus Quatro water quality meter (YSI Incorporated, Yellow Springs, OH, USA) and API Ammonia Test Kit and can be found in Table S1.
(§2) This suite of chosen contaminants represents commonly used pesticides with a range of log KOW values, water solubilities, and target organs. Six concentrations (Table 1), including a solvent control, were assessed per test to determine the appropriate dose–response relationships. Initial test concentrations were determined from existing mortality data from the United State EPA ECOTOX database. Where testing on saltwater species was not available, freshwater data were used to supplement. […] The fourth concentration was selected based off existing mortality data and increased by one magnitude to the fifth concentration to ensure mortality. All lower concentrations were decreased by one subsequent magnitude to ensure an appropriate dose response could be achieved.
(§3) Chemical stock solutions were made at the start of each test from which new exposure solutions were made daily in ASW immediately prior to water changes. There were six replicates per concentration and two organisms per replicate. […] At the end of the exposure period, the final survival data were recorded, and larval fish were humanely sacrificed. Exposures were approved and conducted under the Oregon State University Institutional Animal Care and Use Committee (IACUC) protocol #0035.
(§4) Statistical analysis was conducted in R version 4.0 (Vienna, Austria) and R Studio version 1.3.1093 (Boston, MA, US). The dose–response analysis consisted of fitting two-parameter log-logistic models to all seven compounds at both salinities (14 fits in total) using maximum likelihood optimization in the package drc version 3.0-1 [42]. […] In the Monte Carlo procedure, the salinity treatments for all of the replicates in the dataset were permuted (keeping the sample sizes for each salinity the same), then new dose–response curves were fit to each salinity treatment. The p-value testing whether the observed difference in LC10 and LC50 values was greater than that expected by random chance was calculated as the proportion of Monte Carlo simulations in which the difference in LC values was greater than the original observed difference. […] All values are reported as the mean ± standard error. All statistical analysis and dose–response curves were made and reported with nominal concentrations.

[5] = test system: Inland Silverside (Menidia beryllina); experiment: as above; conditions: <24 hpf embryos to 96 hph larvae, 12 days, nominal concentrations; for 5 PSU LC10: 5 PSU salinity; for 15 PSU LC10: 15 PSU salinity
Protocol: as §1, §2, §3, §4

[6] = set-up: method as in PMID 18829159; conditions: reported environmental persistence; cited from earlier work
[7] = irradiation of a 300 W mercury bulb, cited from earlier work

| SMILES | FW LC50 [1] [ng/mL] | Water Solubility [2] [µg/mL] | log KOW [3] | LC50 at 12 days ([4]; 5 PSU LC50, 5 PSU salinity) [ng/mL] | LC50 at 12 days ([4]; 15 PSU LC50, 15 PSU salinity) [ng/mL] | 5 PSU LC10 [5] [ng/mL] | 15 PSU LC10 [5] [ng/mL] | environmental half-life [6] | half-life ([7]; distilled water) [h] | half-life ([7]; seawater) [h] | log KOW ([3]; values quoted in discussion of Delta smelt study) |
| --- | --- | --- | --- | --- | --- | --- | --- | --- | --- | --- | --- |
| Cc1c(COC(=O)[C@@H]2[C@H](/C=C(\Cl)C(F)(F)F)C2(C)C)cccc1-c1ccccc1 (racemic) [Bifenthrin, bifenthrin] | 0.15 to 14.7 | 0.1 | 6.6 | 0.16 (≈ 0.000378 µM) | 0.12 (≈ 0.000284 µM) | 0.0227 | 0.00533 |  |  |  |  |
| CCOP(=S)(OCC)Oc1nc(Cl)c(Cl)cc1Cl [Chlorpyrifos, chlorpyrifos] | <1 to 301 |  | 4.7 | 8.03 (≈ 0.0229 µM) | 2.4 (≈ 0.00685 µM) | 0.137 | 0.0393 |  |  |  |  |
| Nc1c(Cl)cc([N+](=O)[O-])cc1Cl [Dicloran, dicloran] |  | 6.3 | 2.8 |  |  |  |  |  |  |  |  |
| CCCCC(C#N)(Cn1cncn1)c1ccc(Cl)cc1 (centres unmarked) [Myclobutanil, myclobutanil] | 4200 to 5270 | 132 | 2.8 | 3760 (≈ 13 µM) | 1550 (≈ 5.37 µM) |  |  |  |  |  |  |
| C[n+]1ccc(-c2cc[n+](C)cc2)cc1 [Paraquat, paraquat dichloride hydrate] | 15000 to 38680 | 620000 | −4.5 | 37500 | 18100 | 54.7 | 24.5 | around two |  |  |  |
| CCCC(Cn1cncn1)c1ccc(Cl)cc1Cl (centres unmarked) [Penconazole, penconazole] |  |  | 3.7 | 107 (≈ 0.377 µM) | 20.2 (≈ 0.0711 µM) | 0.235 | 0.0244 |  |  |  |  |
| CC(C)(C)C(=O)C(Oc1ccc(Cl)cc1)n1cncn1 (centres unmarked) [Triadimefon, triadimefon] |  | 64 | 3.2 |  |  |  |  |  | 0.9 | 2.97 |  |
| CC1(C)C(C=C(Cl)Cl)C1C(=O)OCc1cccc(Oc2ccccc2)c1 (centres unmarked) [permethrin] |  |  |  |  |  |  |  |  |  |  | 6.9 |
